{"source": "patent US20230175032A1", "about": "“EFFICIENT SYNTHESIS OF OMEGA-GLYCOSIDES AND ALKYL GLYCOSIDES” (AMPHISTAR, priority 2020, published 2023)", "system": "S. bombicola Δcyp52M1Δfao1 strain", "assay": "shake flask cultivation fed with primary alcohols, viability as colony forming units", "assay_type": "cell-based, Starmerella bombicola", "conditions": "alcohol added after 48 h of cultivation; in contrast to all other fed substrates (FIG. 8A)", "description": "Production experiments using S. bombicola were performed using the production medium described by Lang et al., (2000). For shake flask experiments, 5 mL tube cultures were set up 24 h (30° C.), before transferring to shake flasks (4% inoculation). Production experiments were executed with feeding of fatty alcohols: oleyl alcohol, stearyl alcohol, lauryl alcohol, myristyl alcohol or cetyl alcohol which were added after 48 h of cultivation. The Δcyp52M1Δfao1 strain was also assessed without addition of the hydrophobic alcohol. For every production experiment, cultivation was stopped when glucose was depleted from the medium. […]\nOptical density (OD) of cultures was measured at 600 nm using the Jasco V 630 Bio spectrophotometer (Jasco Europe) of 1 mL samples diluted with physiological solution (9 g/L NaCl). The viability of yeast cells in cultivation experiments was assessed by determining colony forming units (CFUs) which were expressed as the average logarithm of CFUs per culture volume as log(CFU/mL) (Saerens, Saey, et al., 2011). Alternatively, Cell Dry Weight (CDW) was determined by centrifuging 1 mL fermentation samples at 14000 rpm for 5 min in tared Eppendorf tubes, and subsequently washing the cell pellets twice with 1 mL physiological solution. […] The CDW (g/L) was calculated after subtraction of the empty weight of the Eppendorf tube."}
{"smiles": "CCCCCCCCCCCCO", "note": "[lauryl alcohol]", "values": [{"measurement": "CFUs", "result": "significant drop"}]}
